Experimental data: PubChem BioAssay AID504752 (National Center for Advancing Translational Sciences (NCATS), 2011)

Assay: Inhibitors of Cruzain: PBS Stability Profiling Assay
Details: PBS pH 7 stability, 37 C, LC-MS/MS, 48 h; at 2 µM; stronger effect = higher value
Excerpt: Chagas Disease is a neglected tropical disease that affects over 16 million people in Latin America. The cysteine protease cruzain is essential for the survival Trypanosoma cruzi, the parasitic agent responsible for Chagas disease. Potential intervention for T. cruzi includes the inhibition of cruzain. This bioassay will summarize the ongoing development of small molecule cruzain inhbitiors. Currently, a screen of ~200k compounds and through extensive follow-up work a probe was identified. To further characterize the probe, it was tested in in vitro ADME assays. The stability of the lead compound in PBS buffer is tested because this parameter has a significant impact on many ADME-concerned properties of drugs, such as uptake, distribution, transport, and eventually bioavailability. NIH Chemical Genomics Center [NCGC] NIH Molecular Libraries Probe Production Centers Network [MLPCN] MLSCN Grant: DA024891-01 PI Name: Dr. Brian Shoichet; University of California, San Francisco
2uM of compound is incubated in PBS buffer at pH 7; the reference compound is procaine. Compounds are incubated at 37 deg C for the pre-determined time periods and the when aliquots are removed. Samples are analyzed with LC-MS/MS.

Compound: Cc1ccc(OCCn2c(CCNC(=O)C3CCCCC3)nc3ccccc32)cc1
- percent remaining: 100%
